Source: ChEMBL document CHEMBL5352410, “Discovery of novel selenium-containing azole derivatives as antifungal agents by exploiting the hydrophobic cleft of CYP51” (Eur J Med Chem, 2022)
≈ marks a conversion by molar mass, not a printed value.

Experiments:
Candida albicans [1] = test: Antifungal activity against Candida albicans sc5314 by CLSI based broth microdilution method; format: functional
Candida albicans [2] = test: Antifungal activity against Candida albicans by CLSI based broth microdilution method; format: functional
Nakaseomyces glabratus = test: Antifungal activity against Candida glabrata by CLSI based broth microdilution method; format: functional
Candida parapsilosis = test: Antifungal activity against Candida parapsilosis by CLSI based broth microdilution method; format: functional; details: Lodderomyces parapsilosis
Pichia kudriavzevii = test: Antifungal activity against Pichia kudriavzevii by CLSI based broth microdilution method; format: functional
[Candida] zeylanoides = Antifungal activity against Candida zeylanoides by CLSI based broth microdilution method; format: functional; details: Dujonia zeylanoides
Cryptococcus neoformans = test: Antifungal activity against Cryptococcus neoformans by CLSI based broth microdilution method; format: functional
Aspergillus fumigatus = test: Antifungal activity against Aspergillus fumigatus by CLSI based broth microdilution method; format: functional
Candida albicans [3] = test: Antifungal activity against FCZ-resistant Candida albicans CaR by CLSI based broth microdilution method; format: functional
Candida albicans [4] = test: Antifungal activity against FCZ-resistant Candida albicans 17# by CLSI based broth microdilution method; format: functional
Candida albicans [5] = test: Antifungal activity against FCZ-resistant Candida albicans 632 by CLSI based broth microdilution method; format: functional
Candida albicans [6] = test: Antifungal activity against FCZ-resistant Candida albicans 901 by CLSI based broth microdilution method; format: functional
Candida albicans [7] = test: Antifungal activity against FCZ-resistant Candida albicans 904 by CLSI based broth microdilution method; format: functional
Candida albicans [8] = test: Fungicidal activity against Candida albicans; format: functional
Candida albicans [9] = test: Fungicidal activity against Candida albicans sc5314; format: functional
Candida albicans [10] = test: Fungicidal activity against FCZ-resistant Candida albicans CaR; format: functional
Candida albicans [11] = test: Fungicidal activity against FCZ-resistant Candida albicans 17#; format: functional
Candida albicans [12] = test: Fungicidal activity against FCZ-resistant Candida albicans 632; format: functional
Candida albicans [13] = test: Fungicidal activity against FCZ-resistant Candida albicans 901; format: functional
Candida albicans [14] = test: Fungicidal activity against FCZ-resistant Candida albicans 904; format: functional
[15] = molecular target: T1, Lanosterol 14-alpha demethylase (Candida albicans (strain SC5314 / ATCC MYA-2876) (Yeast), UniProt P10613); test: Inhibition of CYP51 of Candida albicans ATCC SC5314 assessed as decrease in ergosterol level by measuring residual activity at 1 ug/ml incubated for 16 hrs by GC-MS analysis (reference value: 98.3 %); details: at 1 µg/mL
T1 sequence (P10613 whole entry): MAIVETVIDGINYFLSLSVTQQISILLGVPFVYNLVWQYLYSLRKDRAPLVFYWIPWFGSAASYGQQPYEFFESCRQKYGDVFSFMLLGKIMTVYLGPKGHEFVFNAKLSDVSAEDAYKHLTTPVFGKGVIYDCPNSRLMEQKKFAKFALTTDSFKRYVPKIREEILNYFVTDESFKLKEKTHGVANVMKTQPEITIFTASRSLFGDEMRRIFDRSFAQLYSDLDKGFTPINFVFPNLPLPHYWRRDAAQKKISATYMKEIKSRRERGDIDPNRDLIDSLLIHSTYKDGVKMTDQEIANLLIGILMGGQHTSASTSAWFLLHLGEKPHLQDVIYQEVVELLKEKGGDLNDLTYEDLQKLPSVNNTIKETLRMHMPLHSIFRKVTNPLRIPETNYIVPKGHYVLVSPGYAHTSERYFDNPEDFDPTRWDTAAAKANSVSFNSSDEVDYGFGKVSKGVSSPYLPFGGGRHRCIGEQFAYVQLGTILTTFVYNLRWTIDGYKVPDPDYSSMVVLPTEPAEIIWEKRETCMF

[16] = molecular target: T1, Lanosterol 14-alpha demethylase; test: Inhibition of CYP51 of Candida albicans ATCC SC5314 assessed as decrease in ergosterol level by measuring residual activity at 2 ug/ml incubated for 16 hrs by GC-MS analysis (reference value: 98.3 %); details: at 2 µg/mL
[17] = molecular target: T1, Lanosterol 14-alpha demethylase; test: Inhibition of CYP51 of Candida albicans ATCC SC5314 assessed as decrease in ergosterol level by measuring residual activity at 4 ug/ml incubated for 16 hrs by GC-MS analysis (reference value: 98.3 %); details: at 4 µg/mL
[18] = molecular target: T1, Lanosterol 14-alpha demethylase; test: Inhibition of CYP51 of Candida albicans ATCC SC5314 assessed as decrease in ergosterol level by measuring residual activity at 8 ug/ml incubated for 16 hrs by GC-MS analysis (reference value: 98.3 %); details: at 8 µg/mL
[19] = molecular target: T1, Lanosterol 14-alpha demethylase; test: Inhibition of CYP51 of Candida albicans ATCC SC5314 assessed as increase in obtusifoliol level at 1 ug/ml incubated for 16 hrs by GC-MS analysis (reference value: 0 %); design: scale not given: the % may be the effect or the level left; details: at 1 µg/mL
[20] = molecular target: T1, Lanosterol 14-alpha demethylase; test: Inhibition of CYP51 of Candida albicans ATCC SC5314 assessed as increase in obtusifoliol level at 2 ug/ml incubated for 16 hrs by GC-MS analysis (reference value: 0 %); design: scale not given: the % may be the effect or the level left; details: at 2 µg/mL
[21] = molecular target: T1, Lanosterol 14-alpha demethylase; test: Inhibition of CYP51 of Candida albicans ATCC SC5314 assessed as increase in obtusifoliol level at 4 ug/ml incubated for 16 hrs by GC-MS analysis (reference value: 0 %); design: scale not given: the % may be the effect or the level left; details: at 4 µg/mL
[22] = molecular target: T1, Lanosterol 14-alpha demethylase; test: Inhibition of CYP51 of Candida albicans ATCC SC5314 assessed as increase in obtusifoliol level at 8 ug/ml incubated for 16 hrs by GC-MS analysis (reference value: 0 %); design: scale not given: the % may be the effect or the level left; details: at 8 µg/mL
[23] = molecular target: T1, Lanosterol 14-alpha demethylase; test: Inhibition of CYP51 of Candida albicans ATCC SC5314 assessed as increase in lanosterol level at 1 ug/ml incubated for 16 hrs by GC-MS analysis (reference value: 1.7 %); design: scale not given: the % may be the effect or the level left; details: at 1 µg/mL
[24] = molecular target: T1, Lanosterol 14-alpha demethylase; test: Inhibition of CYP51 of Candida albicans ATCC SC5314 assessed as increase in lanosterol level at 2 ug/ml incubated for 16 hrs by GC-MS analysis (reference value: 1.7 %); design: scale not given: the % may be the effect or the level left; details: at 2 µg/mL
[25] = molecular target: T1, Lanosterol 14-alpha demethylase; test: Inhibition of CYP51 of Candida albicans ATCC SC5314 assessed as increase in lanosterol level at 4 ug/ml incubated for 16 hrs by GC-MS analysis (reference value: 1.7 %); design: scale not given: the % may be the effect or the level left; details: at 4 µg/mL
[26] = molecular target: T1, Lanosterol 14-alpha demethylase; test: Inhibition of CYP51 of Candida albicans ATCC SC5314 assessed as increase in lanosterol level at 8 ug/ml incubated for 16 hrs by GC-MS analysis (reference value: 1.7 %); design: scale not given: the % may be the effect or the level left; details: at 8 µg/mL
[27] = molecular target: T1, Lanosterol 14-alpha demethylase; test: Inhibition of CYP51 of Candida albicans ATCC SC5314 assessed as increase in eburicol level at 1 ug/ml incubated for 16 hrs by GC-MS analysis (reference value: 0 %); design: scale not given: the % may be the effect or the level left; details: at 1 µg/mL
[28] = molecular target: T1, Lanosterol 14-alpha demethylase; test: Inhibition of CYP51 of Candida albicans ATCC SC5314 assessed as increase in eburicol level at 2 ug/ml incubated for 16 hrs by GC-MS analysis (reference value: 0 %); design: scale not given: the % may be the effect or the level left; details: at 2 µg/mL
[29] = molecular target: T1, Lanosterol 14-alpha demethylase; test: Inhibition of CYP51 of Candida albicans ATCC SC5314 assessed as increase in eburicol level at 4 ug/ml incubated for 16 hrs by GC-MS analysis (reference value: 0 %); design: scale not given: the % may be the effect or the level left; details: at 4 µg/mL
[30] = molecular target: T1, Lanosterol 14-alpha demethylase; test: Inhibition of CYP51 of Candida albicans ATCC SC5314 assessed as increase in eburicol level at 8 ug/ml incubated for 16 hrs by GC-MS analysis (reference value: 0 %); design: scale not given: the % may be the effect or the level left; details: at 8 µg/mL
Candida albicans [31] = test: Antibiofilm activity against Candida albicans SC5314 assessed as sessile minimum inhibitory concentration measured after 1.5 hrs by XTT assay; format: functional
Candida albicans [32] = test: Antibiofilm activity against Candida albicans SC5314 assessed as sessile minimum inhibitory concentration measured after 3 hrs by XTT assay; format: functional
Candida albicans [33] = test: Antibiofilm activity against Candida albicans SC5314 assessed as sessile minimum inhibitory concentration measured after 6 hrs by XTT assay; format: functional
Candida albicans [34] = test: Antibiofilm activity against Candida albicans SC5314 assessed as sessile minimum inhibitory concentration measured after 24 hrs by XTT assay; format: functional
Candida albicans [35] = test: Antibiofilm activity against Candida albicans CPCC400616 assessed as sessile minimum inhibitory concentration measured after 1.5 hrs by XTT assay; format: functional
Candida albicans [36] = test: Antibiofilm activity against Candida albicans CPCC400616 assessed as sessile minimum inhibitory concentration measured after 3 hrs by XTT assay; format: functional
Candida albicans [37] = test: Antibiofilm activity against Candida albicans CPCC400616 assessed as sessile minimum inhibitory concentration measured after 6 hrs by XTT assay; format: functional
Candida albicans [38] = test: Antibiofilm activity against Candida albicans CPCC400616 assessed as sessile minimum inhibitory concentration measured after 24 hrs by XTT assay; format: functional
[39] = Cytotoxicity against human HL-60 cells by MTT assay; format: toxicity, cell-based
[40] = Cytotoxicity against human MDA-MB-231 cells by MTT assay; format: toxicity, cell-based
[41] = Cytotoxicity against human PC-3 cells by MTT assay; format: toxicity, cell-based

## Clc1ccc(C(Cn2ccnc2)[Se]C(Cn2ccnc2)c2ccc(Cl)cc2)cc1 (stereo not given)
Candida albicans [1]
  MIC: 1 µg/mL (≈ 2.04 µM)
Candida albicans [2]
  MIC: 2 µg/mL (≈ 4.08 µM)
Nakaseomyces glabratus
  MIC: 64 µg/mL (≈ 131 µM)
Candida parapsilosis
  MIC: 2 µg/mL (≈ 4.08 µM)
Pichia kudriavzevii
  MIC: 16 µg/mL (≈ 32.6 µM)
[Candida] zeylanoides
  MIC: 8 µg/mL (≈ 16.3 µM)
Cryptococcus neoformans
  MIC: > 64 µg/mL
Aspergillus fumigatus
  MIC: > 64 µg/mL
Candida albicans [3]
  MIC: 4 µg/mL (≈ 8.16 µM)
Candida albicans [4]
  MIC: 1 µg/mL (≈ 2.04 µM)
Candida albicans [5]
  MIC: 2 µg/mL (≈ 4.08 µM)
Candida albicans [6]
  MIC: 1 µg/mL (≈ 2.04 µM)
Candida albicans [7]
  MIC: 1 µg/mL (≈ 2.04 µM)
Candida albicans [8]
  MFC: 32 µg/mL (≈ 65.3 µM)
Candida albicans [9]
  MFC: 2 µg/mL (≈ 4.08 µM)
Candida albicans [10]
  MFC: > 64 µg/mL
Candida albicans [11]
  MFC: > 64 µg/mL
Candida albicans [12]
  MFC: 4 µg/mL (≈ 8.16 µM)
Candida albicans [13]
  MFC: 2 µg/mL (≈ 4.08 µM)
Candida albicans [14]
  MFC: 1 µg/mL (≈ 2.04 µM)
[15]
  Activity: 64.7%
[16]
  Activity: 10.4%
[17]
  Activity: 4.4%
[18]
  Activity: 3.7%
[19]
  Activity: 1%
[20]
  Activity: 18%
[21]
  Activity: 9.5%
[22]
  Activity: 23.8%
[23]
  Activity: 5.1%
[24]
  Activity: 15.4%
[25]
  Activity: 12.4%
[26]
  Activity: 17%
[27]
  Activity: 29.3%
[28]
  Activity: 56.2%
[29]
  Activity: 73.8%
[30]
  Activity: 55.5%
Candida albicans [31]
  MIC50: 0.5 µg/mL (≈ 1.02 µM)
  MIC80: 2 µg/mL (≈ 4.08 µM)
Candida albicans [32]
  MIC50: 0.5 µg/mL (≈ 1.02 µM)
  MIC80: 2 µg/mL (≈ 4.08 µM)
Candida albicans [33]
  MIC50: 0.5 µg/mL (≈ 1.02 µM)
  MIC80: 4 µg/mL (≈ 8.16 µM)
Candida albicans [34]
  MIC50: 0.5 µg/mL (≈ 1.02 µM)
  MIC80: 2 µg/mL (≈ 4.08 µM)
Candida albicans [35]
  MIC50: 0.5 µg/mL (≈ 1.02 µM)
  MIC80: 2 µg/mL (≈ 4.08 µM)
Candida albicans [36]
  MIC50: 0.5 µg/mL (≈ 1.02 µM)
  MIC80: 2 µg/mL (≈ 4.08 µM)
Candida albicans [37]
  MIC50: 1 µg/mL (≈ 2.04 µM)
  MIC80: 2 µg/mL (≈ 4.08 µM)
Candida albicans [38]
  MIC50: 2 µg/mL (≈ 4.08 µM)
  MIC80: 4 µg/mL (≈ 8.16 µM)
[39]
  IC50: 5.18 µM
[40]
  IC50: 3.25 µM
[41]
  IC50: 0.98 µM
